Data as given in the NIST ThermoML archive (doi:10.1016/j.jct.2017.12.012).
± gives the expanded uncertainty stated by the source.

Experiments:
[1] = 101.33 kPa, Liquid, Vibrating tube method
[2] = activity coefficient (dimensionless); of the first substance listed, at infinite dilution; xn = mol fraction of the nth substance listed; conditions: 101.33 kPa, Liquid, Chromatography, x1 = 0

SMILES | mass density ([1]; 313.15 K) [kg/m3] | mass density ([1]; 323.15 K) [kg/m3] | mass density ([1]; 333.15 K) [kg/m3] | mass density ([1]; 343.15 K) [kg/m3] | mass density ([1]; 353.15 K) [kg/m3] | activity coefficient ([2]; 313.15 K) | activity coefficient ([2]; 323.15 K) | activity coefficient ([2]; 333.15 K) | activity coefficient ([2]; 343.15 K) | activity coefficient ([2]; 353.15 K)
CCCCCCCCn1cc[n+](C)c1C.O=S(=O)([N-]S(=O)(=O)C(F)(F)F)C(F)(F)F | 1296.1 ± 2.4 | 1287.4 ± 2.4 | 1278.6 ± 2.4 | 1269.1 ± 2.4 | 1258.2 ± 2.4 | – | – | – | – | –
Cc1ccccc1C [1,2-dimethylbenzene] + CCCCCCCCn1cc[n+](C)c1C.O=S(=O)([N-]S(=O)(=O)C(F)(F)F)C(F)(F)F | – | – | – | – | – | 1.15 ± 0.12 | 1.08 ± 0.11 | 1.02 ± 0.1 | 0.96 ± 0.1 | 0.93 ± 0.09
Cc1cccc(C)c1 [1,3-dimethylbenzene] + CCCCCCCCn1cc[n+](C)c1C.O=S(=O)([N-]S(=O)(=O)C(F)(F)F)C(F)(F)F | – | – | – | – | – | 1.18 ± 0.12 | 1.14 ± 0.12 | 1.1 ± 0.11 | 1.04 ± 0.11 | 1.01 ± 0.1
Cc1ccc(C)cc1 [1,4-dimethylbenzene] + CCCCCCCCn1cc[n+](C)c1C.O=S(=O)([N-]S(=O)(=O)C(F)(F)F)C(F)(F)F | – | – | – | – | – | 1.17 ± 0.12 | 1.11 ± 0.11 | 1.06 ± 0.11 | 1 ± 0.1 | 0.95 ± 0.1
C1COCCO1 [1,4-dioxane] + CCCCCCCCn1cc[n+](C)c1C.O=S(=O)([N-]S(=O)(=O)C(F)(F)F)C(F)(F)F | – | – | – | – | – | 0.64 ± 0.07 | 0.56 ± 0.06 | 0.51 ± 0.06 | 0.47 ± 0.05 | 0.42 ± 0.05
CC(C)CO [2-methyl-1-propanol] + CCCCCCCCn1cc[n+](C)c1C.O=S(=O)([N-]S(=O)(=O)C(F)(F)F)C(F)(F)F | – | – | – | – | – | 2.21 ± 0.23 | 1.88 ± 0.2 | 1.6 ± 0.17 | 1.39 ± 0.14 | 1.21 ± 0.12
CC(C)CCO [3-methylbutan-1-ol] + CCCCCCCCn1cc[n+](C)c1C.O=S(=O)([N-]S(=O)(=O)C(F)(F)F)C(F)(F)F | – | – | – | – | – | 2.46 ± 0.26 | 2.11 ± 0.22 | 1.79 ± 0.19 | 1.55 ± 0.16 | 1.32 ± 0.14
CC(C)=O [acetone] + CCCCCCCCn1cc[n+](C)c1C.O=S(=O)([N-]S(=O)(=O)C(F)(F)F)C(F)(F)F | – | – | – | – | – | 0.46 ± 0.05 | 0.41 ± 0.05 | 0.37 ± 0.04 | 0.34 ± 0.04 | 0.31 ± 0.04
CC#N [acetonitrile] + CCCCCCCCn1cc[n+](C)c1C.O=S(=O)([N-]S(=O)(=O)C(F)(F)F)C(F)(F)F | – | – | – | – | – | 0.51 ± 0.06 | 0.45 ± 0.05 | 0.4 ± 0.05 | 0.37 ± 0.04 | 0.34 ± 0.04
c1ccccc1 [benzene] + CCCCCCCCn1cc[n+](C)c1C.O=S(=O)([N-]S(=O)(=O)C(F)(F)F)C(F)(F)F | – | – | – | – | – | 0.81 ± 0.08 | 0.74 ± 0.08 | 0.68 ± 0.07 | 0.63 ± 0.07 | 0.59 ± 0.06
CCCCO [butan-1-ol] + CCCCCCCCn1cc[n+](C)c1C.O=S(=O)([N-]S(=O)(=O)C(F)(F)F)C(F)(F)F | – | – | – | – | – | 2.31 ± 0.24 | 1.96 ± 0.21 | 1.7 ± 0.18 | 1.46 ± 0.15 | 1.27 ± 0.13
CCC(C)O (stereo not given) [butan-2-ol] + CCCCCCCCn1cc[n+](C)c1C.O=S(=O)([N-]S(=O)(=O)C(F)(F)F)C(F)(F)F | – | – | – | – | – | 2.03 ± 0.21 | 1.74 ± 0.18 | 1.5 ± 0.16 | 1.29 ± 0.13 | 1.11 ± 0.11
C1CCCCC1 [cyclohexane] + CCCCCCCCn1cc[n+](C)c1C.O=S(=O)([N-]S(=O)(=O)C(F)(F)F)C(F)(F)F | – | – | – | – | – | 4.76 ± 0.5 | 4.16 ± 0.44 | 3.75 ± 0.39 | 3.37 ± 0.35 | 3.12 ± 0.33
C1=CCCCC1 [cyclohexene] + CCCCCCCCn1cc[n+](C)c1C.O=S(=O)([N-]S(=O)(=O)C(F)(F)F)C(F)(F)F | – | – | – | – | – | 3.04 ± 0.32 | 2.77 ± 0.29 | 2.5 ± 0.26 | 2.28 ± 0.24 | 2.1 ± 0.22
CCCCCCCCCC [decane] + CCCCCCCCn1cc[n+](C)c1C.O=S(=O)([N-]S(=O)(=O)C(F)(F)F)C(F)(F)F | – | – | – | – | – | 20.8 ± 2.2 | 16.4 ± 1.7 | 13.5 ± 1.4 | 11.2 ± 1.2 | 9.33 ± 0.98
ClCCl [dichloromethane] + CCCCCCCCn1cc[n+](C)c1C.O=S(=O)([N-]S(=O)(=O)C(F)(F)F)C(F)(F)F | – | – | – | – | – | 0.82 ± 0.08 | 0.75 ± 0.08 | 0.68 ± 0.07 | 0.64 ± 0.07 | 0.58 ± 0.06
CCO [ethanol] + CCCCCCCCn1cc[n+](C)c1C.O=S(=O)([N-]S(=O)(=O)C(F)(F)F)C(F)(F)F | – | – | – | – | – | 1.7 ± 0.18 | 1.49 ± 0.15 | 1.31 ± 0.13 | 1.15 ± 0.12 | 1.01 ± 0.1
